Experiments:
HL60 = test: Cell growth inhibition in HL60; type: cell-based; conditions: Homo sapiens, HL-60, HL60 cells; read-out: Cell Growth Inhibition (IC50) HL60
CBP = target: T1, CBP (Homo sapiens, UniProt Q92793); test: CBP degradation in 22Rv1 cells (5 h); type: cell-based; conditions: 22Rv1 cells, 5 h; for Dmax: 22Rv1, 5 h, read-out: CBP Degradation (22Rv1, 5 h) DCmax
T1 construct: endogenous in cells; host or cells: 22Rv1 (ATCC CRL-2505) human prostate cancer cells
Text: (§1) Biological Assays. […] Cells with 3-8 passages after purchase were used in experiments.

22Rv1 cells = test: Cell growth inhibition assay (CellTiter-Glo) in 22Rv1; type: cell-based, human; conditions: Homo sapiens, 22Rv1, 96 h, 22Rv1 cells, 96 h incubation; read-out: Cell Growth Inhibition (IC50) 22Rv1
Outline: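 22Rv1 prostate cancer cells (passages 3-8, DMEM with 10% FBS) were seeded at 4000 cells/well with compound, 3-fold dilutions from 10 μM final. After 96 h at 37° C and 5% CO2, growth was read by CellTiter-Glo 2.0 luminescence.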

P300 = target: T2, P300 (Homo sapiens, UniProt Q09472); test: P300 degradation in 22Rv1 cells (5 h); type: cell-based; conditions: 22Rv1 cells, 5 h; for Dmax: read-out: P300 Degradation (22Rv1, 5 h) DCmax
T2 construct: endogenous in cells; host or cells: 22Rv1 (ATCC CRL-2505) human prostate cancer cells
Text: as §1

T2 sequence (Q09472 whole entry): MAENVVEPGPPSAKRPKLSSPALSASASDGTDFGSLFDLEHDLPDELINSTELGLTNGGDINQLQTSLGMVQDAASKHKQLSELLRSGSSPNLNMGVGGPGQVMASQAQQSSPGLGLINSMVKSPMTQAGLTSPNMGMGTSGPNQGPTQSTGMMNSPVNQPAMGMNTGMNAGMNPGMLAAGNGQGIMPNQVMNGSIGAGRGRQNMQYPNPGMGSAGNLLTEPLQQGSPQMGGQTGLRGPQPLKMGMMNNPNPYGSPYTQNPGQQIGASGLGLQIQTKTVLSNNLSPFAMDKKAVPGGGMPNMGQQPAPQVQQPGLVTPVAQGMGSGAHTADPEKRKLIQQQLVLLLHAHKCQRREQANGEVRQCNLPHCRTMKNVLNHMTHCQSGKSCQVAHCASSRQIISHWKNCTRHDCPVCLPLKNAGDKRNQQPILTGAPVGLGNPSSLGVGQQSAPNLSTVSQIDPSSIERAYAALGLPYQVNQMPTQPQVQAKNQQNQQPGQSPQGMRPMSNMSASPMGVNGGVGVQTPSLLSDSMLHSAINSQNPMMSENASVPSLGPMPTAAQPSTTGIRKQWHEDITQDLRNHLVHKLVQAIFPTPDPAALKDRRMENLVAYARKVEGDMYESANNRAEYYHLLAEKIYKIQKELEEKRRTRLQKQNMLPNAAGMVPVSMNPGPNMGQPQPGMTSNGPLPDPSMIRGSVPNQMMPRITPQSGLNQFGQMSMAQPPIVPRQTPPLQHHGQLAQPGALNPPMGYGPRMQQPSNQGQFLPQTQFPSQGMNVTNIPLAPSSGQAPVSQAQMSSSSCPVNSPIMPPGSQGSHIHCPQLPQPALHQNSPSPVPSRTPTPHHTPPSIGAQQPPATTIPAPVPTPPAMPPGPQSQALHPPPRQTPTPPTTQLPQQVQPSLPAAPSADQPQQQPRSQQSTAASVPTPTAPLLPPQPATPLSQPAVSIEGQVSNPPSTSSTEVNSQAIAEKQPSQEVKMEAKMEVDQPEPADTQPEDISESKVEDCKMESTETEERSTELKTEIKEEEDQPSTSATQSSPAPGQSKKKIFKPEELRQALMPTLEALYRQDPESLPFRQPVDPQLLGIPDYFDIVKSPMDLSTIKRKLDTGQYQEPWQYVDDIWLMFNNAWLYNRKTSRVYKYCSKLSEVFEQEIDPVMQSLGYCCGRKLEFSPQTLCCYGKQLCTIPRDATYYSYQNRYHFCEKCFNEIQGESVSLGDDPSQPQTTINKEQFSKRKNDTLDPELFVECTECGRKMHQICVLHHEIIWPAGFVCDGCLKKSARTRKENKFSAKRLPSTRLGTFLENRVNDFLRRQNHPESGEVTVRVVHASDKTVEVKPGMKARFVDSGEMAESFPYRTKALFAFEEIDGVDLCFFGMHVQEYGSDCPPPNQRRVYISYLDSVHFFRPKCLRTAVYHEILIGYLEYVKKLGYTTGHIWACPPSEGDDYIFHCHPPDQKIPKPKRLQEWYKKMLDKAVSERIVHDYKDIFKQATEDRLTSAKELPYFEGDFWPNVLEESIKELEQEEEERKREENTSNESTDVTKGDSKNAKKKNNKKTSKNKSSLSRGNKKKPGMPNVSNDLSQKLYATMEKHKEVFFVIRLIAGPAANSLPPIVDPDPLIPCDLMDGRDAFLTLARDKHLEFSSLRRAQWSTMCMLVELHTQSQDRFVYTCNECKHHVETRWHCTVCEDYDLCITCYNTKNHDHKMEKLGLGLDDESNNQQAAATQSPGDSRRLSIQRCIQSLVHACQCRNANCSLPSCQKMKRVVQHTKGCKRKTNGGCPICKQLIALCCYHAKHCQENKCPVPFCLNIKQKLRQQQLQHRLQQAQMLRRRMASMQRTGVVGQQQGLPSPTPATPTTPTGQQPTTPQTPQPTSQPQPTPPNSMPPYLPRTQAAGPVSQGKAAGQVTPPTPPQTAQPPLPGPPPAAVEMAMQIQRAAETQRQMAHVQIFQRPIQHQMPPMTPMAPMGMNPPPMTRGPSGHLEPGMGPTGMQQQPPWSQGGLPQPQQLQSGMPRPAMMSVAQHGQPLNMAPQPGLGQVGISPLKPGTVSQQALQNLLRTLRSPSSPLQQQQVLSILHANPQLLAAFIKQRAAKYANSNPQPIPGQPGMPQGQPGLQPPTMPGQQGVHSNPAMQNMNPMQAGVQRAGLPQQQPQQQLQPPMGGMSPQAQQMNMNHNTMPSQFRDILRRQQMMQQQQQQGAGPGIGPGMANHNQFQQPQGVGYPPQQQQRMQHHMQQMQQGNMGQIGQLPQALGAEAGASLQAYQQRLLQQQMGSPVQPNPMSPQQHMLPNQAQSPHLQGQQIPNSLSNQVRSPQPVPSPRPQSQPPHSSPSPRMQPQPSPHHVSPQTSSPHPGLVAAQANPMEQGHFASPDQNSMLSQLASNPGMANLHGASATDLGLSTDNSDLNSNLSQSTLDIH
T1 sequence (Q92793 whole entry): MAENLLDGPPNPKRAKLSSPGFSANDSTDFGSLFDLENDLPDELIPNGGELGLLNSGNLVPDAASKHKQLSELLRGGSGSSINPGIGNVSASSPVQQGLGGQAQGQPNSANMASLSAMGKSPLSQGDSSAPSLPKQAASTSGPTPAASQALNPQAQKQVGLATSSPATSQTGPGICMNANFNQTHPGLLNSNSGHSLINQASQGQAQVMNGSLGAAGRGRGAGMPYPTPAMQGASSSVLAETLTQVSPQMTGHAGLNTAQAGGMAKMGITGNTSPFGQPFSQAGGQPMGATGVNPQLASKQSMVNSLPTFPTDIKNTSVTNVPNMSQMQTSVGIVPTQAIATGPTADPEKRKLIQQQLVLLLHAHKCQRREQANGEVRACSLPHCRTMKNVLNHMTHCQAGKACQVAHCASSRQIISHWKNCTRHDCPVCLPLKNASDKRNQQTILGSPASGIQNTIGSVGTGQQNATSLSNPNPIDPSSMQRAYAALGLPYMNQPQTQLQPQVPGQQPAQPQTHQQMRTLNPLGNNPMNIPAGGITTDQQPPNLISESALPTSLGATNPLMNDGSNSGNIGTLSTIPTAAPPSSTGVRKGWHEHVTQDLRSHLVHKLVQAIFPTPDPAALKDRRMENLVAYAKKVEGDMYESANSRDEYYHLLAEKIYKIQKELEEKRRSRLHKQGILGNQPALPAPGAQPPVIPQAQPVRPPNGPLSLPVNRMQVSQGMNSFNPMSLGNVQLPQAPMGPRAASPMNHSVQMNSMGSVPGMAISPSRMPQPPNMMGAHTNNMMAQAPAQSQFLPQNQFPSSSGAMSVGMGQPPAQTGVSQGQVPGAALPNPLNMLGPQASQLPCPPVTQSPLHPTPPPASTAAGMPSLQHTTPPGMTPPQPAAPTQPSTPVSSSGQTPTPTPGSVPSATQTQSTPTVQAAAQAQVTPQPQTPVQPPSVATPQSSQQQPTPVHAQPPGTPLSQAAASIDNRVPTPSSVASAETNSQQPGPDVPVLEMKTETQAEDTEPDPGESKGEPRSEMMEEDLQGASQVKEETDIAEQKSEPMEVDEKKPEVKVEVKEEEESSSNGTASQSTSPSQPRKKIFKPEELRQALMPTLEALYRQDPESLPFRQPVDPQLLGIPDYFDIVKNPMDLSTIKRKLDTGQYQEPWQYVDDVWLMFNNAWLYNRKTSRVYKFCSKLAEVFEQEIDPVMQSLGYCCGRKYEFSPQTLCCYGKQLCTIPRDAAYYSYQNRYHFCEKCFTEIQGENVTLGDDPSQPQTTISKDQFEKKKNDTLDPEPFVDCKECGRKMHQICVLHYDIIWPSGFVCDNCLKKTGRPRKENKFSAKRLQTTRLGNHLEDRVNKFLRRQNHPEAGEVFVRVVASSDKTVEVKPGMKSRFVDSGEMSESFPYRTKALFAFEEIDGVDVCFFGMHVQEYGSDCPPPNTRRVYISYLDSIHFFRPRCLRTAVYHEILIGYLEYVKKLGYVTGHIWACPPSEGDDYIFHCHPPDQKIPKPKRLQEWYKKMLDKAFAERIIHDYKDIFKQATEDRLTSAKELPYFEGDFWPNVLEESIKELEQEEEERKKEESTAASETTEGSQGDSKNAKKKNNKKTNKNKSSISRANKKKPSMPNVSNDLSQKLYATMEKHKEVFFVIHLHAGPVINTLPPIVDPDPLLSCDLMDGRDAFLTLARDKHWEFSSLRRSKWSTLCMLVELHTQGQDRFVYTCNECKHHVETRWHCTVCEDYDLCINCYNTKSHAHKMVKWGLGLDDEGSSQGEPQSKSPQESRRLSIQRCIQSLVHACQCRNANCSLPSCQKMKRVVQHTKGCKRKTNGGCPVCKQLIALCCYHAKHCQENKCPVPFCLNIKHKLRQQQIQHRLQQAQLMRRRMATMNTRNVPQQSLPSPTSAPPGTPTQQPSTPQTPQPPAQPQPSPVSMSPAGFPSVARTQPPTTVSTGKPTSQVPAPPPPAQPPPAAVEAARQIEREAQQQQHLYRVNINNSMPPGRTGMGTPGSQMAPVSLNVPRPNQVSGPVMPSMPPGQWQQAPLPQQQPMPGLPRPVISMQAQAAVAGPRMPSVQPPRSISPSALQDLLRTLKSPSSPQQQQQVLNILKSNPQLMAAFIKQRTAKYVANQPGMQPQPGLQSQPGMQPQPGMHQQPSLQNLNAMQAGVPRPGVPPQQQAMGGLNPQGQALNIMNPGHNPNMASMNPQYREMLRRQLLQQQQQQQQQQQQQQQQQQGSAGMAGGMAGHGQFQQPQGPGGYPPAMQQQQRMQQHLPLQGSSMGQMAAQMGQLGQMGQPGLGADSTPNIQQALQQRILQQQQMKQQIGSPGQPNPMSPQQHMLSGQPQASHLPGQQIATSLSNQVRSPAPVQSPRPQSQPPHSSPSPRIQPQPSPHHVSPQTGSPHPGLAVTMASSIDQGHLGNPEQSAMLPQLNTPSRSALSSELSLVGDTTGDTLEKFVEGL

Row | SMILES | IC50 (HL60) [nM] | Dmax (CBP) [%] | DC50 (CBP) [nM] | IC50 (22Rv1 cells) [nM] | DC50 (P300) [nM] | Dmax (P300) [%]
1 | CC(=O)N1CCc2c(c(N3CCCc4cc5c(cc43)CCCC5)nn2C2CCN(C(=O)CN3Cc4cc5c(cc4C3)C(=O)N(C3CCC(=O)NC3=O)C5=O)CC2)C1 (stereo not drawn) [CP-077, 6-(2-(4-(5-acetyl-3-(3,4,6,7,8,9-hexahydrobenzo[g]quinolin-1(2H)-yl)-4,5,6,7-tetrahydro-1H-pyrazolo[4,3-c]pyridin-1-yl)piperidin-1-yl)-2-oxoethyl)-2-(2,6-dioxopiperidin-3-yl)-6,7-dihydropyrrolo[3,4-f]isoindole-1,3(2H,5H)-dione] | < 1000 | > 90 | < 10 | < 1000 | < 10 | > 90
2 | CC(=O)N1CCc2c(c(N3CCCc4cc5c(cc43)CCCC5)nn2C2CCN(C(=O)CN3CCc4cc5c(cc4C3)C(=O)N(C3CCC(=O)NC3=O)C5=O)CC2)C1 (stereo not drawn) [CP-078, 6-(2-(4-(5-acetyl-3-(3,4,6,7,8,9-hexahydrobenzo[g]quinolin-1(2H)-yl)-4,5,6,7-tetrahydro-1H-pyrazolo[4,3-c]pyridin-1-yl)piperidin-1-yl)-2-oxoethyl)-2-(2,6-dioxopiperidin-3-yl)-5,6,7,8-tetrahydro-1H-pyrrolo[3,4-g]isoquinoline-1,3(2H)-dione] | < 1000 | > 90 | < 10 | < 1000 | < 10 | > 70
3 | CC(=O)N1CCc2cc3c(cc2C1)CCCN3c1nn(C2CCN(C(=O)CN3Cc4cc5c(cc4C3)C(=O)N(C3CCC(=O)NC3=O)C5=O)CC2)c2c1CN(C(C)=O)CC2 (stereo not drawn) [CP-080, 6-(2-(4-(5-acetyl-3-(7-acetyl-3,4,6,7,8,9-hexahydropyrido[3,4-g]quinolin-1(2H)-yl)-4,5,6,7-tetrahydro-1H-pyrazolo[4,3-c]pyridin-1-yl)piperidin-1-yl)-2-oxoethyl)-2-(2,6-dioxopiperidin-3-yl)-6,7-dihydropyrrolo[3,4-f]isoindole-1,3(2H,5H)-dione] | > 10000 | > 70 | < 10 | > 10000 | < 10 | > 70
4 | CC(=O)N1CCc2c(ccc3c2CCCN3c2nn(C3CCN(C(=O)CN4Cc5cc6c(cc5C4)C(=O)N(C4CCC(=O)NC4=O)C6=O)CC3)c3c2CN(C(C)=O)CC3)C1 (stereo not drawn) [CP-081, 6-(2-(4-(5-acetyl-3-(3-acetyl-1,3,4,8,9,10-hexahydro-3,7-phenanthrolin-7(2H)-yl)-4,5,6,7-tetrahydro-1H-pyrazolo[4,3-c]pyridin-1-yl)piperidin-1-yl)-2-oxoethyl)-2-(2,6-dioxopiperidin-3-yl)-6,7-dihydropyrrolo[3,4-f]isoindole-1,3(2H,5H)-dione] | > 10000 | < 50 | > 1000 | > 10000 | > 1000 | < 50
5 | CC(=O)N1CCc2c(c(-c3cccc4ccncc34)nn2C2CCN(C(=O)CN3Cc4cc5c(cc4C3)C(=O)N(C3CCC(=O)NC3=O)C5=O)CC2)C1 (stereo not drawn) [CP-082, 6-(2-(4-(5-acetyl-3-(isoquinolin-8-yl)-4,5,6,7-tetrahydro-1H-pyrazolo[4,3-c]pyridin-1-yl)piperidin-1-yl)-2-oxoethyl)-2-(2,6-dioxopiperidin-3-yl)-6,7-dihydropyrrolo[3,4-f]isoindole-1,3(2H,5H)-dione] | > 10000 | < 50 | > 1000 | > 10000 | > 1000 | < 50

More lines, now with the values ahead:

Row | IC50 (HL60) [nM] | Dmax (CBP) [%] | DC50 (CBP) [nM] | IC50 (22Rv1 cells) [nM] | DC50 (P300) [nM] | Dmax (P300) [%] | SMILES
6 | < 100 | > 90 | < 100 | < 1000 | < 100 | > 70 | CC(=O)N1CCc2c(c(N3CCCc4cc5c(cc43)C(C)CCC5)nn2C2CCN(C(=O)CN3Cc4cc5c(cc4C3)C(=O)N(C3CCC(=O)NC3=O)C5=O)CC2)C1 (stereo not drawn) [CP-079, 6-(2-(4-(5-acetyl-3-(9-methyl-3,4,6,7,8,9-hexahydrobenzo[g]quinolin-1(2H)-yl)-4,5,6,7-tetrahydro-1H-pyrazolo[4,3-c]pyridin-1-yl)piperidin-1-yl)-2-oxoethyl)-2-(2,6-dioxopiperidin-3-yl)-6,7-dihydropyrrolo[3,4-f]isoindole-1,3(2H,5H)-dione]
7 | > 10000 | < 50 | > 1000 | > 10000 | > 1000 | < 50 | CC(=O)N1CCc2c(c(N3CCCc4cc5c(cc43)C(C)(C)CCC5)nn2C2CCN(C(=O)CN3Cc4cc5c(cc4C3)C(=O)N(C3CCC(=O)NC3=O)C5=O)CC2)C1 (stereo not drawn) [CP-083, 6-(2-(4-(5-acetyl-3-(9,9-dimethyl-3,4,6,7,8,9-hexahydrobenzo[g]quinolin-1(2H)-yl)-4,5,6,7-tetrahydro-1H-pyrazolo[4,3-c]pyridin-1-yl)piperidin-1-yl)-2-oxoethyl)-2-(2,6-dioxopiperidin-3-yl)-6,7-dihydropyrrolo[3,4-f]isoindole-1,3(2H,5H)-dione]
8 | > 10000 | < 50 | > 1000 | > 10000 | > 1000 | < 50 | CC(=O)N1Cc2c(N3CCCc4cc(-c5cnn(C)c5)c(C(F)F)cc43)nn(C3CCN(C(=O)CN4Cc5cc6c(cc5C4)C(=O)N(C4CCC(=O)NC4=O)C6=O)CC3)c2C(C)(C)C1 (stereo not drawn) [CP-084, 6-(2-(4-(5-acetyl-3-(7-(difluoromethyl)-6-(1-methyl-1H-pyrazol-4-yl)-3,4-dihydroquinolin-1(2H)-yl)-7,7-dimethyl-4,5,6,7-tetrahydro-1H-pyrazolo[4,3-c]pyridin-1-yl)piperidin-1-yl)-2-oxoethyl)-2-(2,6-dioxopiperidin-3-yl)-6,7-dihydropyrrolo[3,4-f]isoindole-1,3(2H,5H)-dione]
9 | > 10000 | > 70 | < 10 | > 10000 | > 1000 | < 50 | CC(=O)N1Cc2c(N3CCCc4cc(-c5ccnn5C)c(C(F)F)cc43)nn(C3CCN(C(=O)CN4Cc5cc6c(cc5C4)C(=O)N(C4CCC(=O)NC4=O)C6=O)CC3)c2C(C)(C)C1 (stereo not drawn) [CP-085, 6-(2-(4-(5-acetyl-3-(7-(difluoromethyl)-6-(1-methyl-1H-pyrazol-5-yl)-3,4-dihydroquinolin-1(2H)-yl)-7,7-dimethyl-4,5,6,7-tetrahydro-1H-pyrazolo[4,3-c]pyridin-1-yl)piperidin-1-yl)-2-oxoethyl)-2-(2,6-dioxopiperidin-3-yl)-6,7-dihydropyrrolo[3,4-f]isoindole-1,3(2H,5H)-dione]
